Read-outs that look alike come from different tables or passages of the source. One block for each compound: values may come before it.
Tests used:
[1] = Storage stability: appearance, assay/label strength (LS), total impurities/degradation products; type: physicochemical; conditions: for physical and chemical stability: open container, 1 month at 40° C./75% RH
Protocol: In some embodiments, the film-coated tablets were packaged in 75 and 100 mL white HDPE bottles (Lots A and B, respectively, as described in Tables 11A, 11B) with 1 g silica gel desiccant canisters and a polyester fiber coil. The 75 and 100 mL HDPE bottles contained fourteen and twenty eight tablets, respectively. Each HDPE bottle was capped using a white, continuous thread, child-resistant polypropylene screw cap with an […], aluminum-faced line. The packaged tablets (14 and 28 counts) were evaluated for stability at 40° C./75% RH and 25° C./60% RH. Additionally, the 14-count bottles (without cap) were evaluated for stability under open conditions at 40° C./75% RH.
For each of the impact studies, the sofosbuvir/velpatasvir SSD/voxilaprevir SSD tablets were packaged in a designated commercial packaging configuration (28-count, 100 mL HPDE bottle, coil, 1 g desiccant), and stored for 12 weeks at 25° C./60% RH and 40° C./75% RH. Tablets were also packaged in open containers (28-count, 100 mL HPDE bottle without cap) and stored for 4 weeks at 40° C./75% RH and for 1 week at 50° C./92% RH.
The sofosbuvir/velpatasvir SSD/voxilaprevir SSD tablets were packaged in the designated commercial packaging configuration (28-count, 100 mL HPDE bottle, coil, 1 g desiccant), and stored for 6 months at 25° C./60% RH and 40° C./75% RH.

[2] = Photostability (light exposure, ICH Q1B); type: physicochemical
Protocol: In some embodiments, and the Examples presented herein, the tablet formulation includes sofosbuvir having Form 6 and, optionally, a trace amount of Form 7.
Tablet cores and film-coated tablets were evaluated per ICH Q1B guidelines with a total of illumination of more than 1.2 million-lux hours and a total irradiance of more than 200 W·hr/m^2.

[3] = Hygroscopicity; type: physicochemical
Text: (§1) In some embodiments, and the Examples presented herein, the tablet formulation includes sofosbuvir having Form 6 and, optionally, a trace amount of Form 7. […] Form 6 of sofosbuvir is the thermodynamically stable form and remains physically stable when suspended in water. Form 7 of Sofosbuvir, while physically stable in water for short periods of time, can be converted to Form 6 with prolonged stirring.
Voxilaprevir SSD is hygroscopic, with a reversible weight gain of 11% when cycled between 0% and 90% RH at 25° C.

[4] = Oral bioavailability of crystalline voxilaprevir forms in a dog model; conditions: in vivo, read-out: oral bioavailability, less than that of crystalline Form VI
Protocol: (§2) As described previously, Form VIII of voxilaprevir is characterized by an X-ray powder diffractogram comprising the following peaks (±0.2°): at 7.8, 8.2, and 20.2°2θ, as determined on a diffractometer using Cu-Kα radiation.

[5] = BCS classification; type: physicochemical
[6] = Tablet dissolution in 50 mM sodium acetate buffer pH 5.0 with 2.0% w/v Polysorbate 80 and 0.001% w/v BHT, 75 rpm, 900 mL, 37° C., USP Type II; type: physicochemical; conditions: for dissolution at 30 minutes: after 4 weeks open at 40° C./75% RH
[7] = Velpatasvir single and multiple oral dose pharmacokinetics; type: in vivo, human; conditions: for concentration at 24 h: human, plasma, oral, 5 mg, mean
Protocol: Following single and multiple oral doses of velpatasvir, maximum plasma concentrations occurred between 1.50 and 3.25 hours (median tmax).

[8] = Tablet dissolution as a function of medium pH and composition (Apparatus II, 75 rpm, 900 mL, 37° C.); type: physicochemical; conditions: Formulation G tablets
[9] = Solubility (aqueous, spray-drying solvents); type: physicochemical
Text: as §1, §2
The selection of a suitable solvent for the spray drying process was based on (1) the solubility of voxilaprevir EAS, Form II and copovidone in the solvent, (2) the chemical stability of voxilaprevir EAS, Form II in the presence of the solvent, and (3) the impact of the solvent on feed solution properties and particle properties of the resulting solid dispersion. Acetone and dichloromethane were evaluated as solvents for the feed solution because of their low boiling points and the high solubility of voxilaprevir EAS, Form II (>300 mg/mL) in these solvents.

Structure (SMILES): CC(C)OC(=O)[C@@H](C)N[P@](=O)(OC[C@H]1O[C@@H](n2ccc(=O)[nH]c2=O)[C@](C)(F)[C@@H]1O)Oc1ccccc1 [sofosbuvir Form 7]
physical and chemical stability [1]: physically and chemically stable
photosensitivity [2]: not photosensitive
hygroscopicity [3]: non-hygroscopic

Structure (SMILES): CC[C@@H]1[C@@H]2CN(C(=O)[C@H](C(C)(C)C)NC(=O)O[C@@H]3C[C@H]3CCCCC(F)(F)c3nc4ccc(OC)cc4nc3O2)[C@@H]1C(=O)N[C@]1(C(=O)NS(=O)(=O)C2(C)CC2)C[C@H]1C(F)F [crystalline Form VIII]
bioavailability [4]: ~50%

Structure (SMILES): CC(C)OC(=O)[C@@H](C)N[P@](=O)(OC[C@H]1O[C@@H](n2ccc(=O)[nH]c2=O)[C@](C)(F)[C@@H]1O)Oc1ccccc1 [sofosbuvir Form 6]
physical and chemical stability [1]: physically and chemically stable
photosensitivity [2]: not photosensitive
hygroscopicity [3]: non-hygroscopic
solubility ([9]; water, 37° C., read-out: aqueous solubility): ≥ 2 mg/mL

Results, then the compound that gave them:

total impurities/degradation products ([1]; packaged Formulation G tablets (Tables 11A, 11B), 40° C./75% RH and 25° C./60% RH for 6 months): 0.0%
total impurities/degradation products ([1]; tablet Lots A-D from sub-potent/super-potent VEL SSD and VOX SSD, all conditions): 0.0%
total impurities/degradation products ([1]; tablets from SSDs made with high-peroxide copovidone (544 ppm VEL SSD, 655 ppm VOX SSD)): 0.0%
total impurities/degradation products ([1]; tablets from VEL SSD with 6.0% residual ethanol and VOX SSD with 2.1% residual acetone, all conditions): 0.0%
total impurities/degradation products ([1]; tablets from VEL SSD with 7.0% and VOX SSD with 3.2% water content, all conditions): 0.0%
level of degradation products ([2]; tablets film-coated to weight gains of 2.1 to 5.4%, ICH Q1B): 0.4%
loss after exposure to light ([2]; uncoated tablet cores (Formulation G), ICH Q1B): up to 0.3%
aqueous solubility, pH dependence [5]: pH-dependent solubility
dissolution at 30 minutes ([6]; SSD potency tablets Lot A): 86%
dissolution at 30 minutes ([6]; SSD potency tablets Lot B): 91%
release at 30 minutes ([6]; tablets containing neat amorphous velpatasvir free base (physical mixture with copovidone)): 62%
release at 30 minutes ([6]; tablets containing velpatasvir SSD): 91%
dose linearity of PK ([7]; dose range of 5 to 450 mg): nonlinear PK
concentration at 24 h ([7]; multiple dose 5 mg, read-out: Ctau): 2.2 ng/mL
concentration at 24 h ([7]; single dose 5 mg, read-out: Clast): 1.4 ng/mL
dissolution at 60 minutes in pH 4.0 and 5.0 containing 2.0% w/v polysorbate 80 [8]: complete dissolution
dissolution in pH 2.0, 4.5 and 6.8 buffers, FaSSIF and FeSSIF [8]: Incomplete dissolution
Structure (SMILES): COC[C@H]1C[C@@H](c2ncc(-c3ccc4c(c3)COc3cc5c(ccc6nc([C@@H]7CC[C@H](C)N7C(=O)[C@@H](NC(=O)OC)C(C)C)[nH]c65)cc3-4)[nH]2)N(C(=O)[C@H](NC(=O)OC)c2ccccc2)C1 [Velpatasvir, methyl {(2S)-1-[(2S,5S)-2-(9-{2-[(2S,4S)-1-{(2R)-2-[(methoxycarbonyl)amino]-2-phenylacetyl}-4-(methoxymethyl)pyrrolidin-2-yl]-1H-imidazol-5-yl}-1,11-dihydroisochromeno[4′,3′:6,7]naphtho[1,2-d]imidazol-2-yl)-5-methylpyrrolidin-1-yl]-3-methyl-1-oxobutan-2-yl}carbamate]

solubility ([9]; acetone and dichloromethane, organic solvent or mixture, read-out: solubility in acetone and dichloromethane): > 300 mg/mL
Structure (SMILES): CC[C@@H]1[C@@H]2CN(C(=O)[C@H](C(C)(C)C)NC(=O)O[C@@H]3C[C@H]3CCCCC(F)(F)c3nc4ccc(OC)cc4nc3O2)[C@@H]1C(=O)N[C@]1(C(=O)NS(=O)(=O)C2(C)CC2)C[C@H]1C(F)F [voxilaprevir EAS, Form II]
